“And” between values parts separate entries of the source, which are not always exact repeats. Equal values may be shown once. Numbers after ± are expanded uncertainties.
Settings: Liquid, Closed cell (Static) method

SMILES	vapor or sublimation pressure (283.15 K)	vapor or sublimation pressure (288.16 K)	vapor or sublimation pressure (293.15 K)	vapor or sublimation pressure (298.14 K)	vapor or sublimation pressure (303.15 K)	vapor or sublimation pressure (308.15 K)	vapor or sublimation pressure (313.15 K)	vapor or sublimation pressure (313.16 K)	vapor or sublimation pressure (318.15 K)	vapor or sublimation pressure (323.15 K)	vapor or sublimation pressure (288.15 K)	vapor or sublimation pressure (293.16 K)	vapor or sublimation pressure (298.15 K)	vapor or sublimation pressure (308.16 K)	vapor or sublimation pressure (318.16 K)
CCF [fluoroethane]	601.4 ± 1.4 kPa and 601.4 ± 2 kPa	698.2 ± 1.5 kPa	805.6 ± 2.6 kPa and 805.6 ± 1.6 kPa	924.8 ± 1.7 kPa	1057.4 ± 3.3 kPa and 1057.4 ± 1.9 kPa	1203.4 ± 2.1 kPa	1363.6 ± 4.3 kPa	1363.6 ± 2.3 kPa	1539 ± 2.5 kPa	1730.6 ± 5.4 kPa and 1730.6 ± 2.8 kPa	–	–	–	–	–
FCF [difluoromethane]	1107.3 ± 3.5 kPa	–	1474 ± 4.7 kPa	–	1925.8 ± 6.1 kPa	–	2476.2 ± 7.8 kPa	–	–	3138 ± 9.8 kPa	–	–	–	–	–
C=C(F)C(F)(F)F [2,3,3,3-tetrafluoro-1-propene]	437.4 ± 1.2 kPa and 437.4 ± 1.6 kPa	–	591.7 ± 2 kPa	–	782.5 ± 2.5 kPa and 782.5 ± 1.6 kPa	–	1017.8 ± 3.2 kPa	1017.8 ± 1.8 kPa	–	1301.4 ± 4.1 kPa and 1301.4 ± 2.2 kPa	509.9 ± 1.3 kPa	591.7 ± 1.4 kPa	681.9 ± 1.4 kPa	893.6 ± 1.7 kPa	1153.2 ± 2 kPa

From the NIST ThermoML archive (doi:10.1016/j.fluid.2017.01.024)
